Several values for one entry are separate records, joined by “and”; a condition that tells them apart may be missing. Equal values may be shown once.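 Tested at 5 concentrations; 48 h exposure; 96-well plates; endpoints linearly interpolated, else capped at highest concentration. Here, GI50 denotes the concentration required for 50% inhibition of growth. The concentration for full growth arrest is given as TGI.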
How the values were obtained:
Test in all cases: NCI anticancer screen, dose series, 48 h
CCRF-CEM leukemia = tested on: CCRF-CEM leukemia
COLO 205 colon = tested on: COLO 205 colon
DU-145 prostate = tested on: DU-145 prostate
HCT-116 colon = tested on: HCT-116 colon
MOLT-4 leukemia = tested on: MOLT-4 leukemia
NCI-H460 lung = tested on: NCI-H460 lung
NCI-H522 lung = tested on: NCI-H522 lung
NCI/ADR-RES ovarian = tested on: NCI/ADR-RES ovarian
RPMI-8226 leukemia = tested on: RPMI-8226 leukemia
UO-31 renal = tested on: UO-31 renal

Row | SMILES | GI50 (CCRF-CEM leukemia) | TGI (CCRF-CEM leukemia) | GI50 (COLO 205 colon) | TGI (COLO 205 colon) | GI50 (DU-145 prostate) | TGI (DU-145 prostate) | GI50 (HCT-116 colon) | TGI (HCT-116 colon) | GI50 (MOLT-4 leukemia) | TGI (MOLT-4 leukemia) | GI50 (NCI-H460 lung) | TGI (NCI-H460 lung) | GI50 (NCI-H522 lung) | TGI (NCI-H522 lung) | GI50 (NCI/ADR-RES ovarian) | TGI (NCI/ADR-RES ovarian) | TGI (RPMI-8226 leukemia) | GI50 (UO-31 renal) | TGI (UO-31 renal) | GI50 (RPMI-8226 leukemia)
1 | Nc1nc(N)c2nc(CNc3ccc(C(=O)CC(CCC(=O)O)C(=O)O)cc3)cnc2n1 (configuration not stated) | 0.0562 µM | > 100 µM | 5.77 µM | > 100 µM | 2.24 µM | > 100 µM | < 0.0185 µM | > 100 µM | 0.125 µM | > 100 µM | 0.127 µM | > 100 µM | 0.47 µM | > 100 µM | 0.224 µM | > 100 µM | > 100 µM | 0.168 µM | > 100 µM | 
2 | COc1ccc(-c2coc3ncnc(N)c23)cc1 | > 25 µM | > 25 µM | > 25 µM | > 25 µM | > 25 µM | > 25 µM | > 25 µM | > 25 µM | > 25 µM | > 25 µM | > 25 µM | > 25 µM | > 25 µM | > 25 µM | > 25 µM | > 25 µM | > 25 µM | > 25 µM | > 25 µM | > 25 µM
3 | NC1=NC(=O)N2CC12 (configuration not stated) | 17.3 µM and 14.3 µM | > 100 µM and 58.9 µM and 89.8 µM | 278 µM | > 100 µM and 929 µM | 240 µM | 851 µM | 73.9 µM | 166 µM | 53.3 µM | > 100 µM and 185 µM | 182 µM | > 100 µM and 866 µM | 116 µM | > 100 µM and 367 µM | 168 µM | 660 µM | > 100 µM and 22 µM and 218 µM | 163 µM | > 100 µM and 605 µM | 
4 | COc1cc(N2CCC(N3CCN(C)CC3)CC2)ccc1Nc1ncc(Cl)c(Nc2ccccc2P(C)(C)=O)n1 | 4.41 µM | 98 µM | 0.381 µM | 2.08 µM | 0.933 µM | 20.5 µM | 1.09 µM | 13.3 µM | 4.58 µM | > 100 µM | 2.47 µM | > 40 µM | 0.759 µM | 17.3 µM | 3 µM |  | 39.8 µM | 0.734 µM | 2.7 µM | 3.89 µM
5 | O=S(=O)(/C=C/C=C/S(=O)(=O)c1ccccc1)c1ccccc1 |  | 0.691 µM and 0.424 µM | 1.02 µM | 2.77 µM and 2.71 µM |  | 27.7 µM | 0.606 µM | 2.8 µM and 1.95 µM |  | 1.85 µM | 4.01 µM | 16.9 µM | 0.196 µM | 0.728 µM and 0.601 µM | 2.16 µM | 3.89 µM and 4.68 µM | 1.66 µM |  | 2.92 µM and 3.32 µM | 
6 | Cc1cc(Cl)ccc1Nc1sc(C(=O)c2cc3cc(Cl)ccc3o2)c(N)c1C#N |  | > 52.8 µM |  | > 100 µM |  | > 100 µM |  | > 100 µM |  | > 100 µM |  | > 64.3 µM |  | 21.9 µM |  | > 23.5 µM | > 62.4 µM |  | > 100 µM | 
7 | COc1ccc(C(=O)/C=C/c2cc3ccccc3[nH]c2=O)cc1 | 22.3 µM | > 100 µM | 18.5 µM | 35.3 µM | 17.8 µM | 41.9 µM | 14.7 µM | 24.8 µM | 22.2 µM | > 100 µM | 19.8 µM | > 43.4 µM | 13.5 µM | 24.5 µM | 18.9 µM | 42.9 µM | > 100 µM | > 100 µM | > 100 µM | 18.4 µM

Reference: PubChem BioAssay (NCI)
